We go through 32 compounds from patent publication US9776995B2, “Bicyclic sulfonamide compounds as sodium channel inhibitors” (AMGEN INC., priority 2013, dated 2017).

Chain of Nav 1.7 (Q15858 whole entry): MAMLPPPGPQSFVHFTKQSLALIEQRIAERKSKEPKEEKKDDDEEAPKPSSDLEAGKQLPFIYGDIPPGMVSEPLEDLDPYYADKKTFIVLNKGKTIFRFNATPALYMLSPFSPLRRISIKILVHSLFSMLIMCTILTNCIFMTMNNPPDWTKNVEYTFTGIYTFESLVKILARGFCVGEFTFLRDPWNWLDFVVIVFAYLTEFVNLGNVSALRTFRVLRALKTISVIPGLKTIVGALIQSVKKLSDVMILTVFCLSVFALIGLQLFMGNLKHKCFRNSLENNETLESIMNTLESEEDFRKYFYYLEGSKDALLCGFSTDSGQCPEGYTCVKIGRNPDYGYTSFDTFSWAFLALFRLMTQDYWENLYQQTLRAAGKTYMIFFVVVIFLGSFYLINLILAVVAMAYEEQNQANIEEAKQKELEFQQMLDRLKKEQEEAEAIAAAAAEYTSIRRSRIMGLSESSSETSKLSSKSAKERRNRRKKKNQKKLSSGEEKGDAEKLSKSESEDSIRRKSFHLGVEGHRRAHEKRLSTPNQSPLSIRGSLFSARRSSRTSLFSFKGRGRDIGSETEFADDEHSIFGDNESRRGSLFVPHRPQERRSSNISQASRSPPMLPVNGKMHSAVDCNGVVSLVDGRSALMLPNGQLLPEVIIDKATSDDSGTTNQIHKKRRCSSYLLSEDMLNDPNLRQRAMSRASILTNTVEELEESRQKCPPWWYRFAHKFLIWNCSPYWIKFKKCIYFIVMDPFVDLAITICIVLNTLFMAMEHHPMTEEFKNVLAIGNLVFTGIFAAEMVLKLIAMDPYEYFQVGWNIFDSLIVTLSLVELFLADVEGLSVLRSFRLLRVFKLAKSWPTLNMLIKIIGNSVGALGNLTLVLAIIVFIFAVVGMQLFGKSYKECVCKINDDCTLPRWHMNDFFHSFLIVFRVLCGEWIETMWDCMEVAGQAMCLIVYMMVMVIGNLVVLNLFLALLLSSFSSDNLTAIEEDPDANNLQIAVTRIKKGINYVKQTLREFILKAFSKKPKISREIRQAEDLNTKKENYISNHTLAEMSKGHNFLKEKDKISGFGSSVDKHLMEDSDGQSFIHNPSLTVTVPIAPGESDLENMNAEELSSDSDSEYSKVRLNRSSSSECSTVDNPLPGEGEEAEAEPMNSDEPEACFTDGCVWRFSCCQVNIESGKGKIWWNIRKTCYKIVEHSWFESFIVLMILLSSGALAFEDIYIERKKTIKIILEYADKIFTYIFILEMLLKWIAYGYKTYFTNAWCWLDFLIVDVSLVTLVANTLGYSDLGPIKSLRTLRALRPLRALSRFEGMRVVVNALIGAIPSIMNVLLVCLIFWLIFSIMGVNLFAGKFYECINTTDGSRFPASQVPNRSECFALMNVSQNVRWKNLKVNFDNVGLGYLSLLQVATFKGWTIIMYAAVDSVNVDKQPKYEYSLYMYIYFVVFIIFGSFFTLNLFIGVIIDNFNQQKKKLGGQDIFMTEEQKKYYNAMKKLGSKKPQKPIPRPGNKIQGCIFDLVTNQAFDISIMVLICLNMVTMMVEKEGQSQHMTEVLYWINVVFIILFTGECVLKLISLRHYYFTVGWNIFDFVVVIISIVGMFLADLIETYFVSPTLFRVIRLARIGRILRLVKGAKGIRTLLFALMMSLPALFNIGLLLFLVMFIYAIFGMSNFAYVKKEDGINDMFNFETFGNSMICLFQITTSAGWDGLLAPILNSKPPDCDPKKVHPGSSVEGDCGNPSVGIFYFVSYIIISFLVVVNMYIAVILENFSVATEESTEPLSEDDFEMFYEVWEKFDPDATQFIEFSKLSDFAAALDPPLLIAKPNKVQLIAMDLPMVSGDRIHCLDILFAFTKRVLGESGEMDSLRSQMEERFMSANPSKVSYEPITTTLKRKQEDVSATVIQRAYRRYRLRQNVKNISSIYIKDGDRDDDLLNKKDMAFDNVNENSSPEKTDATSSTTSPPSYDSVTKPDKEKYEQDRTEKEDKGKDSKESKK

The first assay addresses Nav 1.7 (Homo sapiens (Human), UniProt Q15858). Kind of assay: Nav 1.7 in vitro PX assay (PatchXpress whole cell voltage clamp).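 Also: holding potential set for 20 to 50% inactivation, sodium current evoked by a 20 ms step to −10 mV, peak current inhibition read after compound exposure, 3–5 cells per concentration.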 The class given is cell-based.
Settings: not given
For the compound `COc1cc(-c2cccc(C(F)(F)F)c2)c(C#N)cc1-c1nccc2cc(S(=O)(=O)Nc3ncccn3)ccc12` [Example 373, 1-(2-cyano-5-methoxy-3′-(trifluoromethyl)-[1,1′-biphenyl]-4-yl)-N-(pyrimidin-2-yl)isoquinoline-6-sulfonamide], the concentration for half-maximal inhibition (IC50) (commonly the concentration at which inhibition is half-maximal) came to 57 nM. Consider `COc1cc(-c2cccc(F)c2)c(Cl)cc1-c1ncnc2cc(S(=O)(=O)Nc3cscn3)ccc12` [Example 378, 4-(2-chloro-3′-fluoro-5-methoxy-[1,1′-biphenyl]-4-yl)-N-(thiazol-4-yl)quinazoline-7-sulfonamide 2,2,2-trifluoroacetate], for which the IC50 was 231 nM.

The same assay, now with this note: HEK 293 cells stably transfected with human Nav1.7; PatchXpress; partially inactivated state.
`COc1cc(-c2cccc(F)c2)c(Cl)cc1-c1ncnc2cc(S(=O)(=O)Nc3ccsn3)ccc12` [Example 361, 4-(2-chloro-3′-fluoro-5-methoxy-[1,1′-biphenyl]-4-yl)-N-(isothiazol-3-yl)quinazoline-7-sulfonamide]: the IC50 is 369 nM.

In turn, `COc1cc(-c2cc(F)cc(C(F)F)c2)c(F)cc1-c1nccc2cc(S(=O)(=O)Nc3ccon3)ccc12` [Example 362, 1-(3′-(difluoromethyl)-2,5′-difluoro-5-methoxy-[1,1′-biphenyl]-4-yl)-N-(isoxazol-3-yl)isoquinoline-6-sulfonamide] showed an IC50 of 52 nM. Same read-out and setting: the value for `COc1cc(-c2cccc(C(F)(F)F)c2)c(C#N)cc1-c1nccc2cc(S(=O)(=O)Nc3ncc(F)cn3)ccc12` [Example 374, 1-(2-Cyano-5-methoxy-3′-(trifluoromethyl)-[1,1′-biphenyl]-4-yl)-N-(5-fluoropyrimidin-2-yl)isoquinoline-6-sulfonamide] was 94 nM; that for `COc1cc(-c2cccc(Cl)c2)c(F)cc1-c1ncnc2cc(S(=O)(=O)Nc3ncon3)ccc12` [Example 376, 4-(3′-chloro-2-fluoro-5-methoxy-[1,1′-biphenyl]-4-yl)-N-(1,2,4-oxadiazol-3-yl)quinazoline-7-sulfonamide] was 28 nM. As for `COc1cc(-c2cccc(Cl)c2)c(F)cc1-c1ncnc2cc(S(=O)(=O)Nc3ccsn3)ccc12` [Example 377, 4-(3′-Chloro-2-fluoro-5-methoxy-4-biphenylyl)-N-3-isothiazolyl-7-quinazolinesulfonamide], the half-inhibitory concentration (IC50) came out at 90 nM. Regarding `COc1cc(-c2ccc(Cl)c(C)c2)c(Cl)cc1-c1nccc2cc(S(=O)(=O)Nc3nncs3)ccc12` [Example 379, 1-(2,4′-dichloro-5-methoxy-3′-methyl-4-biphenylyl)-N-1,3,4-thiadiazol-2-yl-6-isoquinolinesulfonamide], the concentration for half-maximal inhibition (IC50) was found to be 14 nM. Still for that read-out and setting: under `COc1cc(F)c(-c2cncc(F)c2)cc1-c1nccc2cc(S(=O)(=O)Nc3ccon3)ccc12` [Example 392, 1-(4-fluoro-5-(5-fluoropyridin-3-yl)-2-methoxyphenyl)-N-(isoxazol-3-yl)isoquinoline-6-sulfonamide 2,2,2-trifluoroacetate] stands 491 nM; under `COc1cc(-c2cccc(F)c2)c(F)cc1-c1nc(Cl)cc2cc(S(=O)(=O)Nc3ccon3)ccc12` [Example 393, 3-CHLORO-1-(2,3′-DIFLUORO-5-METHOXY-4-BIPHENYLYL)-N-3-ISOXAZOLYL-6-ISOQUINOLINESULFONAMIDE], 157 nM; under `COc1cc(-c2cccc(F)c2)c(Cl)cc1-c1[nH]c(=O)cc2cc(S(=O)(=O)Nc3ccon3)ccc12` [Example 394, 1-(2-chloro-3′-fluoro-5-methoxy-[1,1′-biphenyl]-4-yl)-N-(isoxazol-3-yl)-3-oxo-2,3-dihydroisoquinoline-6-sulfonamide 2,2,2-trifluoroacetate], 41 nM. Regarding `COc1cc(-c2cccc(F)c2)c(Cl)cc1-c1c(=O)[nH]cc2cc(S(=O)(=O)Nc3ccon3)ccc12` [Example 398, 4-(2-CHLORO-3′-FLUORO-5-METHOXY-[1,1′-BIPHENYL]-4-YL)-N-(ISOXAZOL-3-YL)-3-OXO-2,3-DIHYDROISOQUINOLINE-7-SULFONAMIDE], the IC50 worked out at 27 nM. On the same count and under the same terms, under `COc1cc(F)c(-c2ccccn2)cc1-c1nccc2cc(S(=O)(=O)Nc3ccon3)ccc12` [Example 399] stands 28400 nM. In the case of `COc1cc(-c2cccc(F)c2)c(Cl)cc1-c1c(OC)ncc2cc(S(=O)(=O)Nc3ccon3)ccc12` [Example 401, 4-(2-CHLORO-3′-FLUORO-5-METHOXY-[1,1′-BIPHENYL]-4-YL)-N-(ISOXAZOL-3-YL)-3-METHOXYISOQUINOLINE-7-SULFONAMIDE], it took 613 nM to reach half-maximal inhibition (IC50). On to `COc1cc(-c2cccc(F)c2)c(Cl)cc1-c1c(=O)n(C)cc2cc(S(=O)(=O)Nc3ccon3)ccc12` [Example 402, 4-(2-CHLORO-3′-FLUORO-5-METHOXY-[1,1′-BIPHENYL]-4-YL)-N-(ISOXAZOL-3-YL)-2-METHYL-3-OXO-2,3-DIHYDROISOQUINOLINE-7-SULFONAMIDE], for which the IC50 came to 39 nM.

In turn, `COc1cc(-c2cc(F)cc(F)c2)c(Cl)cc1-c1ncnc2cc(S(=O)(=O)Nc3ncccn3)ccc12` [Example 435, 4-(2-CHLORO-3′,5′-DIFLUORO-5-METHOXY-[1,1′-BIPHENYL]-4-YL)-N-(PYRIMIDIN-2-YL)QUINAZOLINE-7-SULFONAMIDE] registered an IC50 of 86 nM.

In the case of `COc1cc(-c2cccc(Cl)c2)c(Cl)cc1-c1ncnc2cc(S(=O)(=O)Nc3ncccn3)ccc12` [Example 437, 4-(2,3′-DICHLORO-5-METHOXY-[1,1′-BIPHENYL]-4-YL)-N-(PYRIMIDIN-2-YL)QUINAZOLINE-7-SULFONAMIDE], 72 nM corresponded to half-maximal inhibition (IC50). In turn, `COc1cc(-c2cc(F)cc(F)c2)c(C)cc1-c1ncnc2cc(S(=O)(=O)Nc3ncccn3)ccc12` [Example 438, 4-(3′,5′-DIFLUORO-5-METHOXY-2-METHYL-[1,1′-BIPHENYL]-4-YL)-N-(PYRIMIDIN-2-YL)QUINAZOLINE-7-SULFONAMIDE] came in with an IC50 of 94 nM. As for `COc1cc(-c2cccc(Cl)c2)c(C)cc1-c1ncnc2cc(S(=O)(=O)Nc3ncccn3)ccc12` [Example 440, 4-(3′-CHLORO-5-METHOXY-2-METHYL-[1,1′-BIPHENYL]-4-YL)-N-(PYRIMIDIN-2-YL)QUINAZOLINE-7-SULFONAMIDE], the IC50 was found to be 65 nM. As to `COc1cc(-c2cccc(F)c2)c(Cl)cc1-c1c(OC)nnc2cc(S(=O)(=O)Nc3ccon3)ccc12` [Example 445, 4-(2-CHLORO-3′-FLUORO-5-METHOXY-[1,1′-BIPHENYL]-4-YL)-N-(ISOXAZOL-3-YL)-3-METHOXYCINNOLINE-7-SULFONAMIDE], the IC50 was determined as 107 nM.

Take `COc1cc(-c2cccc(F)c2)c(Cl)cc1-c1c(N)nnc2cc(S(=O)(=O)Nc3ccon3)ccc12` [Example 446, 3-AMINO-4-(2-CHLORO-3′-FLUORO-5-METHOXY-[1,1′-BIPHENYL]-4-YL)-N-(ISOXAZOL-3-YL)CINNOLINE-7-SULFONAMIDE]: the IC50 was found to be 28 nM.

In turn, `COc1cc(-c2cc(F)cc(Cl)c2)c(F)cc1-c1c[nH]c(=O)c2cc(S(=O)(=O)Nc3ccon3)ccc12` [Example 451, 4-(3′-CHLORO-2,5′-DIFLUORO-5-METHOXY-[1,1′-BIPHENYL]-4-YL)-N-(ISOXAZOL-3-YL)-1-OXO-1,2-DIHYDROISOQUINOLINE-7-SULFONAMIDE] registered an IC50 of 77 nM. Consider `COc1cc(-c2ccc(Cl)c(C)c2)c(F)cc1-c1c[nH]c(=O)c2cc(S(=O)(=O)Nc3ccon3)ccc12` [Example 452, 4-(4′-CHLORO-2-FLUORO-5-METHOXY-3′-METHYL-[1,1′-BIPHENYL]-4-YL)-N-(ISOXAZOL-3-YL)-1-OXO-1,2-DIHYDROISOQUINOLINE-7-SULFONAMIDE], for which half-maximal inhibition (IC50) required 184 nM. Turning to `COc1cc(-c2cc(F)cc(Cl)c2)c(F)cc1-c1cn(C)c(=O)c2cc(S(=O)(=O)Nc3ccon3)ccc12` [Example 453, 4-(3′-CHLORO-2,5′-DIFLUORO-5-METHOXY-[1,1′-BIPHENYL]-4-YL)-N-(ISOXAZOL-3-YL)-2-METHYL-1-OXO-1,2-DIHYDROISOQUINOLINE-7-SULFONAMIDE], the midpoint of inhibition, the IC50, lay at 48 nM. `COc1cc(-c2ccc(Cl)c(C)c2)c(F)cc1-c1cn(C)c(=O)c2cc(S(=O)(=O)Nc3ccon3)ccc12` [Example 454, 4-(4′-CHLORO-2-FLUORO-5-METHOXY-3′-METHYL-[1,1′-BIPHENYL]-4-YL)-N-(ISOXAZOL-3-YL)-2-METHYL-1-OXO-1,2-DIHYDROISOQUINOLINE-7-SULFONAMIDE] displayed a concentration for half-maximal inhibition (IC50) of 51 nM. `COc1cc(-c2cccc(F)c2)c(Cl)cc1-c1ncnc2cc(S(=O)(=O)Nc3ccc(F)cn3)ccc12` [Example 479] came in with a concentration for half-maximal inhibition (IC50) of 221 nM.

`COc1cc(F)c(-c2ccc(F)nc2)cc1-c1nccc2cc(S(=O)(=O)Nc3ccon3)ccc12` [Example 497, 1-(4-fluoro-5-(6-fluoro-3-pyridinyl)-2-methoxyphenyl)-N-3-isoxazolyl-6-isoquinolinesulfonamide] came in with an IC50 of 479 nM. The same measure, in the same setting: under `CCOc1ccc(-c2cc(OC)c(-c3ncnc4cc(S(=O)(=O)Nc5ccon5)ccc34)cc2F)cc1C` [Example 535, 4-(4′-ethoxy-2-fluoro-5-methoxy-3′-methyl-4-biphenylyl)-N-3-isoxazolyl-7-quinazolinesulfonamide] stands 610 nM; under `COc1cc(-c2cc(C)cc(C)c2)c(F)cc1-c1ncnc2cc(S(=O)(=O)Nc3ccon3)ccc12` [Example 536, 4-(2-fluoro-5-methoxy-3′,5′-dimethyl-4-biphenylyl)-N-3-isoxazolyl-7-quinazolinesulfonamide], 51 nM; under `COc1cc(Cl)cc(-c2cc(OC)c(-c3ncnc4cc(S(=O)(=O)Nc5ccon5)ccc34)cc2F)c1` [Example 537, 4-(3′-chloro-2-fluoro-5,5′-dimethoxy-4-biphenylyl)-N-3-isoxazolyl-7-quinazolinesulfonamide], 36 nM.

In turn, `COc1cc(-c2cccc(Cl)c2)cc(F)c1-c1nccc2cc(S(=O)(=O)Nc3ccon3)ccc12` [Example 538, 1-(3′-chloro-3-fluoro-5-methoxy-4-biphenylyl)-N-3-isoxazolyl-6-isoquinolinesulfonamide] yielded an IC50 of 298 nM.

Take `COc1cc(-c2ccc(C(F)(F)F)cc2)c(F)cc1-c1nccc2cc(S(=O)(=O)Nc3ccon3)ccc12` [Example 539, 1-(2-fluoro-5-methoxy-4′-(trifluoromethyl)-4-biphenylyl)-N-3-isoxazolyl-6-isoquinolinesulfonamide]: the IC50 came to 237 nM.
